Assays:
Plasma = assay: Metabolic stability in mouse plasma after 0.5 to 2 hrs by HPLC analysis; format: ADME, cell-free
Blood [1] = assay: Biodistribution in blood of NSG mouse xenografted with human PC-3 tumor at 0.37 to 0.74 MBq, iv after 0.5 hrs by gamma counting analysis; format: ADME, organism-based; conditions: in vivo
[2] = Biodistribution in fat of NSG mouse xenografted with human PC-3 tumor at 0.37 to 0.74 MBq, iv after 0.5 hrs by gamma counting analysis; format: ADME, organism-based, Adipose tissue; conditions: in vivo
Mus musculus [3] = assay: Biodistribution in seminal gland of NSG mouse xenografted with human PC-3 tumor at 0.37 to 0.74 MBq, iv after 0.5 hrs by gamma counting analysis; format: ADME, organism-based; conditions: in vivo
Mus musculus [4] = assay: Biodistribution in testis of NSG mouse xenografted with human PC-3 tumor at 0.37 to 0.74 MBq, iv after 0.5 hrs by gamma counting analysis; format: ADME, organism-based; conditions: in vivo
Intestine [5] = assay: Biodistribution in intestine of NSG mouse xenografted with human PC-3 tumor at 0.37 to 0.74 MBq, iv after 0.5 hrs by gamma counting analysis; format: ADME, organism-based; conditions: in vivo
Spleen [6] = assay: Biodistribution in spleen of NSG mouse xenografted with human PC-3 tumor at 0.37 to 0.74 MBq, iv after 0.5 hrs by gamma counting analysis; format: ADME, organism-based; conditions: in vivo
Liver [7] = assay: Biodistribution in liver of NSG mouse xenografted with human PC-3 tumor at 0.37 to 0.74 MBq, iv after 0.5 hrs by gamma counting analysis; format: ADME, organism-based; conditions: in vivo
Pancreas [8] = assay: Biodistribution in pancreas of NSG mouse xenografted with human PC-3 tumor at 0.37 to 0.74 MBq, iv after 0.5 hrs by gamma counting analysis; format: ADME, organism-based; conditions: in vivo
Mus musculus [9] = assay: Biodistribution in adrenal gland of NSG mouse xenografted with human PC-3 tumor at 0.37 to 0.74 MBq, iv after 0.5 hrs by gamma counting analysis; format: ADME, organism-based; conditions: in vivo
Kidney [10] = assay: Biodistribution in kidney of NSG mouse xenografted with human PC-3 tumor at 0.37 to 0.74 MBq, iv after 0.5 hrs by gamma counting analysis; format: ADME, organism-based; conditions: in vivo
Lung [11] = assay: Biodistribution in lung of NSG mouse xenografted with human PC-3 tumor at 0.37 to 0.74 MBq, iv after 0.5 hrs by gamma counting analysis; format: ADME, organism-based; conditions: in vivo
Heart [12] = assay: Biodistribution in heart of NSG mouse xenografted with human PC-3 tumor at 0.37 to 0.74 MBq, iv after 0.5 hrs by gamma counting analysis; format: ADME, organism-based; conditions: in vivo
Tumour [13] = assay: Biodistribution in tumor of NSG mouse xenografted with human PC-3 tumor at 0.37 to 0.74 MBq, iv after 0.5 hrs by gamma counting analysis; format: ADME, organism-based, Neoplasm; conditions: in vivo
Muscle tissue [14] = assay: Biodistribution in muscle of NSG mouse xenografted with human PC-3 tumor at 0.37 to 0.74 MBq, iv after 0.5 hrs by gamma counting analysis; format: ADME, organism-based; conditions: in vivo
Bone [15] = assay: Biodistribution in bone of NSG mouse xenografted with human PC-3 tumor at 0.37 to 0.74 MBq, iv after 0.5 hrs by gamma counting analysis; format: ADME, organism-based, Bone element; conditions: in vivo
Brain [16] = assay: Biodistribution in brain of NSG mouse xenografted with human PC-3 tumor at 0.37 to 0.74 MBq, iv after 0.5 hrs by gamma counting analysis; format: ADME, organism-based; conditions: in vivo
Blood [17] = assay: Biodistribution in blood of NSG mouse xenografted with human PC-3 tumor at 0.37 to 0.74 MBq, iv after 1 hr by gamma counting analysis; format: ADME, organism-based; conditions: in vivo
[18] = Biodistribution in fat of NSG mouse xenografted with human PC-3 tumor at 0.37 to 0.74 MBq, iv after 1 hr by gamma counting analysis; format: ADME, organism-based, Adipose tissue; conditions: in vivo
Mus musculus [19] = assay: Biodistribution in seminal gland of NSG mouse xenografted with human PC-3 tumor at 0.37 to 0.74 MBq, iv after 1 hr by gamma counting analysis; format: ADME, organism-based; conditions: in vivo
Mus musculus [20] = assay: Biodistribution in testis of NSG mouse xenografted with human PC-3 tumor at 0.37 to 0.74 MBq, iv after 1 hr by gamma counting analysis; format: ADME, organism-based; conditions: in vivo
Intestine [21] = assay: Biodistribution in intestine of NSG mouse xenografted with human PC-3 tumor at 0.37 to 0.74 MBq, iv after 1 hr by gamma counting analysis; format: ADME, organism-based; conditions: in vivo
Spleen [22] = assay: Biodistribution in spleen of NSG mouse xenografted with human PC-3 tumor at 0.37 to 0.74 MBq, iv after 1 hr by gamma counting analysis; format: ADME, organism-based; conditions: in vivo
Liver [23] = assay: Biodistribution in liver of NSG mouse xenografted with human PC-3 tumor at 0.37 to 0.74 MBq, iv after 1 hr by gamma counting analysis; format: ADME, organism-based; conditions: in vivo
Pancreas [24] = assay: Biodistribution in pancreas of NSG mouse xenografted with human PC-3 tumor at 0.37 to 0.74 MBq, iv after 1 hr by gamma counting analysis; format: ADME, organism-based; conditions: in vivo
Mus musculus [25] = assay: Biodistribution in adrenal gland of NSG mouse xenografted with human PC-3 tumor at 0.37 to 0.74 MBq, iv after 1 hr by gamma counting analysis; format: ADME, organism-based; conditions: in vivo
Kidney [26] = assay: Biodistribution in kidney of NSG mouse xenografted with human PC-3 tumor at 0.37 to 0.74 MBq, iv after 1 hr by gamma counting analysis; format: ADME, organism-based; conditions: in vivo
Lung [27] = assay: Biodistribution in lung of NSG mouse xenografted with human PC-3 tumor at 0.37 to 0.74 MBq, iv after 1 hr by gamma counting analysis; format: ADME, organism-based; conditions: in vivo
Heart [28] = assay: Biodistribution in heart of NSG mouse xenografted with human PC-3 tumor at 0.37 to 0.74 MBq, iv after 1 hr by gamma counting analysis; format: ADME, organism-based; conditions: in vivo
Tumour [29] = assay: Biodistribution in tumor of NSG mouse xenografted with human PC-3 tumor at 0.37 to 0.74 MBq, iv after 1 hr by gamma counting analysis; format: ADME, organism-based, Neoplasm; conditions: in vivo
Muscle tissue [30] = assay: Biodistribution in muscle of NSG mouse xenografted with human PC-3 tumor at 0.37 to 0.74 MBq, iv after 1 hr by gamma counting analysis; format: ADME, organism-based; conditions: in vivo
Bone [31] = assay: Biodistribution in bone of NSG mouse xenografted with human PC-3 tumor at 0.37 to 0.74 MBq, iv after 1 hr by gamma counting analysis; format: ADME, organism-based, Bone element; conditions: in vivo
Brain [32] = assay: Biodistribution in brain of NSG mouse xenografted with human PC-3 tumor at 0.37 to 0.74 MBq, iv after 1 hr by gamma counting analysis; format: ADME, organism-based; conditions: in vivo

Stability (Plasma): Stable
Drug uptake (Blood [1]): 2.1 % ID/g
Drug uptake [2]: 0.25 % ID/g
Drug uptake (Mus musculus [3]): 0.33 % ID/g
Drug uptake (Mus musculus [4]): 0.42 % ID/g
Drug uptake (Intestine [5]): 4.28 % ID/g
Drug uptake (Spleen [6]): 1.08 % ID/g
Drug uptake (Liver [7]): 2.63 % ID/g
Drug uptake (Pancreas [8]): 8.04 % ID/g
Drug uptake (Mus musculus [9]): 1.16 % ID/g
Drug uptake (Kidney [10]): 6.6 % ID/g
Drug uptake (Lung [11]): 1.96 % ID/g
Drug uptake (Heart [12]): 0.54 % ID/g
Drug uptake (Tumour [13]): 2.77 % ID/g
Drug uptake (Muscle tissue [14]): 0.38 % ID/g
Drug uptake (Bone [15]): 0.7 % ID/g
Drug uptake (Brain [16]): 0.07 % ID/g
Drug uptake (Blood [17]): 0.57 % ID/g
Drug uptake [18]: 0.07 % ID/g
Drug uptake (Mus musculus [19]): 0.7 % ID/g
Drug uptake (Mus musculus [20]): 0.25 % ID/g
Drug uptake (Intestine [21]): 6.3 % ID/g
Drug uptake (Spleen [22]): 0.33 % ID/g
Drug uptake (Liver [23]): 0.78 % ID/g
Drug uptake (Pancreas [24]): 4.16 % ID/g
Drug uptake (Mus musculus [25]): 0.5 % ID/g
Drug uptake (Kidney [26]): 2.43 % ID/g
Drug uptake (Lung [27]): 0.96 % ID/g
Drug uptake (Heart [28]): 0.13 % ID/g
Drug uptake (Tumour [29]): 1.47 % ID/g
Drug uptake (Muscle tissue [30]): 0.07 % ID/g
Drug uptake (Bone [31]): 0.28 % ID/g
Drug uptake (Brain [32]): 0.02 % ID/g
Compound: CC(C)C[C@H](NC(=O)C[C@H](O)[C@H](CC(C)C)NC(=O)[C@H](Cc1cnc[nH]1)NC(=O)CNC(=O)[C@@H](NC(=O)[C@H](C)NC(=O)[C@H](Cc1c[nH]c2ccccc12)NC(=O)[C@H](CCC(N)=O)NC(=O)[C@@H](Cc1ccccc1)NC(=O)CN1CCC(NC(=O)Cn2cc(C[N+](C)(C)C[B-](F)(F)[17F])nn2)CC1)C(C)C)C(N)=O

Source: ChEMBL document CHEMBL3399937, “(18)F-AmBF3-MJ9: a novel radiofluorinated bombesin derivative for prostate cancer imaging” (Bioorg Med Chem, 2015)
